From patent US10765690B2, “TLR4 agonists and compositions thereof and their use in the treatment of cancer” (GlaxoSmithKline Intellectual Property Development Limited, priority 2015, dated 2020)

Columns and labels:
[1] = tested on: B16-F10 melanoma cells; test: B16-F10 murine melanoma model, survival; assay type: in vivo, BDF1 mice; conditions: cyclophosphamide alone 3 mg IP on day 5
Procedure: The efficacy of combination therapy with a chemotherapeutic agent and an AGP was also tested in a murine melanoma model using a non-immunogenic tumor called B16-F10. In these experiments, BDF1 mice were seeded with B16-F10 melanoma cells (1.5×10^3 IV) on day 0. At various time thereafter, cancer-bearing mice were treated with cyclophosphamide (aka Cytoxan) alone (3 mg IP), CRX-527-IN (10 ug) alone or a combination of the two agents.

[2] = tested on: Mouse Ovarian Tumor (MOT) cells; test: Mouse Ovarian Tumor (MOT) model, survival, wild-type TLR4 mice; assay type: in vivo, C3H/FeJ, C3H/HeOuJ, C3H/HeN mice; conditions: for protection (survival): 1 and 10 ug doses IP day 7 after mitomycin C day 6
Procedure: To determine whether the timing of administration of the chemotherapeutic and TLR4 ligand is important for the anti-cancer response, C3H/FeJ mice (10 per group) seeded with Mouse Ovarian Tumor (MOT) cells (10^4 tumor cells via the IP route) on day 0 were treated with, 1) nothing (untreated control), 2) mitomycin C (40 ug) on day 6, 3) CRX-527-SE (10 ug in a Stable Emulsion formulation containing 2% squalene oil-in-water) on day 4 followed by mitomycin C on day 6, 4) CRX-527-SE on day 5 followed by mitomycin C on day 6, 5) both CRX-527-SE and mitomycin C on day 6, 6) mitomycin C on day 6 followed by CRX-527-SE on day 7, 7) mitomycin C on day 6 followed by CRX-527-SE on day 10, and 8) mitomycin C on day 6 followed by CRX-527-SE on day 11. The dose/route for mitomycin C and CRX-527-SE administration was always 40 ug IP and 10 ug IP, respectively.
The effect of formulation for the anti-cancer activity observed with CRX-527 was evaluated in the MOT tumor model. In the experiment shown in FIG. 5, C3H/HeN mice (wild-type TLR4, 10 per group) were seeded with MOT tumor (10^4 tumor cells IP) on day 0. Mitomycin C (40 ug IP) was administered on day 6, and 1 or 10 ug CRX-527 formulated in AF (Aqueous Formulation=0.02% dipalmitoyl phosphatidyl choline in water), IN (Intranasal Formulation=2% glycerol in water) or SE (Stable Emulsion=2% squalene oil-in-water) was administered via the IP route on day 7. […] The results of this experiment indicate that the potency of CRX-527 in this model can be enhanced through formulation.
Group size was 10 in this experiment. […]

[3] = tested on: L1210 murine leukemia cells; test: L1210 murine leukemia model, survival of tumor-bearing mice; assay type: in vivo, BDF1 mice; conditions: mitomycin C 40 ug IP day 6 followed by CRX-527-AF 100 ug IP day 7; compared to either component alone; through day 54
Procedure: To investigate whether a combination treatment consisting of the chemotherapeutic mitomycin C and the AGP CRX-527 would prolong survival of cancer-bearing mice better than either treatment alone, BDF1 mice (10 per group) that had been seeded with L1210 murine leukemia cells (10^4 tumor cells via the intraperitoneal (IP) route) on day 0 were treated with, 1) nothing (untreated control), 2) an intraperitoneal injection of mitomycin C (40 ug) on day 6, 3) an IP injection of CRX-527-AF (100 ug CRX-527 in Aqueous Formulation (AF), which is 0.02% dipalmitoyl phosphatidyl choline in water) on day 7, or 4) an IP injection of mitomycin C on day 6 followed by an IP injection of CRX-527-AF on day 7. Survival curves through day 54 are presented for each group in FIG. 1.

[4] = tested on: B16-F10 melanoma cells; test: B16-F10 melanoma lung metastasis, lung tumor burden; assay type: in vivo, BDF1 mice; conditions: CRX-527-SE 10 ug IV and cyclophosphamide 4 mg IP on day 1
Procedure: In further experimentation, B16-F10 melanoma cells transfected with green fluorescent protein were used to quantify metastasis of the tumor to the lungs of mice. Because green fluorescent protein allows quantification of the amount of tumor in the lungs of B16-F10-bearing mice, it was possible to evaluate the efficacy of various treatment regimens using lung tumor burden as the read-out. BDF1 mice were seeded with B16-F10 melanoma cells (1.5×10^3 IV) on day 0. […] On day 26, the mice were sacrificed and their lungs were collected. The lungs from each mouse were photographed and then homogenized so that the luciferase activity could be quantified to determine how much B16-F10 tumor was present. […] This observation was confirmed when the lungs were homogenized and evaluated for luciferase activity.

[5] = tested on: Mouse Ovarian Tumor (MOT) cells; test: Mouse Ovarian Tumor (MOT) model, survival, wild-type TLR4 mice; assay type: in vivo, C3H/FeJ, C3H/HeOuJ, C3H/HeN mice
[6] = tested on: Mouse Ovarian Tumor (MOT) cells; test: MOT model in TLR4 mutant (non-responder) mice, survival; assay type: in vivo; conditions: MOT-bearing C3H/HeJ TLR4 mutant mice
[7] = tested on: 4T1 tumor cells; test: 4T1 murine breast cancer model, survival after removal of primary tumor; assay type: in vivo, BALB/c Mice; conditions: cyclophosphamide 3 mg IP and CRX-527 various doses IV on day 15; vs vehicle or cyclophosphamide alone
Procedure: The benefit of combining chemotherapeutic agents with TLR4 ligands such as AGPs was also confirmed in the 4T1 murine breast cancer model. For the experiments conducted using this metastatic cancer model, 4T1 tumor cells (7×10^3 in 50 uL) were injected into the lower mammary gland of each mouse on day 0. The primary tumors were surgically removed on day 14, the mice (10 per group) were treated on day 15 with vehicles, cyclophosphamide (3 mg IP) or cyclophosphamide (3 mg IP) and CRX-527 (various doses IV).

[8] = tested on: CT-26 colorectal tumor cells; test: CT-26 syngeneic colon carcinoma model, escalating i.p. doses (Example 9); assay type: in vivo, Balb/c mice; conditions: CRX-527 4, 20, 100 ug per mouse i.p. biweekly
Source text: The CT26 mouse colon carcinoma (CT26.WT; ATCC #CRL-2638) cell line was obtained from ATCC. It is an N-nitroso-N-methylurethane-(NNMU) induced, undifferentiated colon carcinoma cell line known in the art. For example, it is described in: Wang M, et al. Active immunotherapy of cancer with a nonreplicating recombinant fowlpox virus encoding a model tumor-associated antigen. J. Immunol. 154: 4685-4692, 1995 (PubMed: 7722321), which is incorporated by reference in its entirety herein. For preparation of tumor cells, A frozen (−140° C.) vial of CT-26 (mouse colon carcinoma cells), from ATCC (cat # CRL-2638, lot #59227052) are thawed and cultured in basic RPMI (with 10% FBS) media over the following week.
CT-26 cells (passage 12) are harvested from the flask in complete medium. Cells are centrifuged and resuspended in RPMI (without FBS), this step is repeated 3 times. Cell density and viability are checked via trypan blue exclusion. Cells are then diluted to desired density (5×10^5 cells per mL) and kept on ice.
Escalating doses of CRX 527 are evaluated for their efficacy in reducing tumor growth. Animals are weighed and innoculated on the right hind quarter with 0.5×10^5 CT26 tumor cells per mouse on Day 0. A total of 130 mice are inoculated with tumor cells—assuming 30% failure rate (either too big or too small at time of start of study), the goal is to have n=10 for each group. After tumor cell innoculation, tumor growth and total body weight are measured 3 times a week for the duration of the study. Randomization occurs on day 10 or 11 when the average tumor volume is approximately 100 mm^3. Begining on the day of randomization, animals are dosed with CRX 527 or vehicle i.p. biweekly, for a total of 6 doses. Mice remain on study until tumors reach >2000 cu mm for two consecutive measurements, they are removed from study for other reasons (i.e. weight loss >20%, ulceration on tumor, etc.) or until the end of the study. After euthanization the tumors may be removed and subject to dissociation for flow analysis and/or FFPE for IHC analysis.
The above protocol was used to generate the results in FIG. 17 at the dosages indicated. In almost every case, Balb/c mice that were inoculated with 0.5×10^5 CT-26 colorectal tumor cells on the right hind quarter developed tumors that, when treated i.p. with vehicle (2% glycerol) only, and progressed as expected. […] FIG. 17.

## O.O=P1(N(CCCl)CCCl)NCCCO1 (stereo not shown) [cyclophosphamide, 2-[bis(2-chloroethyl)amino]tetrahydro-2H-1,3,2-oxazaphosphorine 2-oxide monohydrate]
[1]
  survival: modest prolongation

## CO[C@@]12[C@H](COC(N)=O)C3=C(C(=O)C(C)=C(N)C3=O)N1C[C@@H]1N[C@@H]12 [mitomycin C, reference compound]
[2]; C3H/HeN mice, mitomycin C alone 40 ug IP day 6, compared to no treatment control
  survival: small increase in survival

## CCCCCCCCCCC[C@H](CC(=O)N[C@H]1[C@H](OC[C@H](NC(=O)C[C@@H](CCCCCCCCCCC)OC(=O)CCCCCCCCC)C(=O)O)O[C@H](CO)[C@@H](OP(=O)(O)O)[C@@H]1OC(=O)C[C@@H](CCCCCCCCCCC)OC(=O)CCCCCCCCC)OC(=O)CCCCCCCCC [CRX-527]
[2]; AF formulation (0.02% dipalmitoyl phosphatidyl choline in water), IP day 7 after mitomycin C day 6
  dose required to induce a high level of protection: 10 µg
[2]; C3H/FeJ mice, CRX-527-SE 10 ug IP at the same time as or up to 5 days after mitomycin C 40 ug IP (day 6), vs untreated, mitomycin alone or CRX527-SE followed by mitomycin C
  survival times: significantly prolonged survival times
[2]; C3H/HeN mice, CRX-527 1 or 10 ug IP day 7, one day after mitomycin C 40 ug IP
  survival: prolonged survival
[2]; IN formulation (2% glycerol in water), IP day 7 after mitomycin C day 6
  potency compared to the AF formulation: enhanced potency
[2]; IN formulation
  protection (survival): highly effective
[2]; SE formulation (2% squalene oil-in-water), IP day 7 after mitomycin C day 6
  potency compared to the AF formulation: enhanced potency
[2]; SE formulation
  protection (survival): highly effective
[2]; both mitomycin C and CRX-527, compared to either component alone
  survival: significantly prolonged survival
[3]
  survival: significantly prolonged survival
[4]; day 26, vs vehicle or either agent alone
  luciferase activity in homogenized lungs: significantly less luciferase activity
[4]; lungs collected day 26
  lung tumor burden by visual examination: lower lung tumor burden than any other group
[5]; C3H/HeOuJ wild-type mice, alone or in combination with mitomycin C
  survival: promoted survival
[5]; mice cured of MOT tumor by combination treatment with mitomycin C and CRX-527, compared to naive control mice
  resistance to re-challenge with the same tumor: resistant to re-challenge
[6]
  survival: did not promote survival
[7]
  survival times: longer survival times
[8]
  survivability: Dose dependence was also seen
[8]; 6 doses, compared to vehicle (2% glycerol)
  tumor growth: inhibited tumor growth in a dose dependent manner
